# Columns and labels:
# [1] = tested on: induction of TAT by dexamethasone in HepG2 cells; experiment: Hep G2 TAT assay (inhibition of dexamethasone-induced TAT); format: cell-based, human; settings: challenge of 100 nM dexamethasone, IC50 converted to Ki by Cheng and Prusoff equation
# [2] = molecular target: glucocorticoid receptor (GR) recombinant ligand binding domain (LBD) (Homo sapiens (Human), UniProt P04150); experiment: GR binding fluorescence polarisation (FP) assay; settings: displacement of fluorescently tagged ligand
# Description: Binding of test compounds to the glucocorticoid receptor (GR) is determined using a fluorescence polarisation (FP) assay utilising a recombinant ligand binding domain (LBD) of GR. The test compounds are assessed by their ability to displace a fluorescently tagged ligand and detection of the resulting decrease in fluorescence polarisation.
# glucocorticoid receptor (GR) recombinant ligand binding domain (LBD), sequence (P04150 524-758): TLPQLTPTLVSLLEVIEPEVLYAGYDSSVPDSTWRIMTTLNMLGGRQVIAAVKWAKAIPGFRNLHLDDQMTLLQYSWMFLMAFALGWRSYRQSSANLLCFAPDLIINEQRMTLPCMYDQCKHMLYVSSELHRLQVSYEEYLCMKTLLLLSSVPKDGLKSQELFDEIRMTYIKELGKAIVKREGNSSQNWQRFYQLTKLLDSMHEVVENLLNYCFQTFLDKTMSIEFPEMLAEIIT
smiles,measurement,setting,value
"Cc1ccc(S(=O)(=O)N2CCC(Cc3ccccc3)(c3cc4cnn(-c5ccc(=O)n(C)c5)c4cc3C)C2)cn1 (centres unmarked) [Example 299, 5-(5-(3-benzyl-1-((6-methylpyridin-3-yl)sulfonyl)pyrrolidin-3-yl)-6-methyl-1H-indazol-1-yl)-1-methylpyridin-2(1H)-one]",Ki,[1],48 nM
same,IC50,[2],8.8 nM
"Cc1cc2c(cnn2-c2ccc(=O)n(C)c2)cc1C1(Cc2ccccc2)CCN(S(=O)(=O)c2cc(F)cc(F)c2)C1 (centres unmarked) [Example 297, 5-(5-(3-benzyl-1-((3,5-difluorophenyl)sulfonyl)pyrrolidin-3-yl)-6-methyl-1H-indazol-1-yl)-1-methylpyridin-2(1H)-one]",Ki,[1],36 nM
same,IC50,[2],10 nM
COCCN([C@@H]1CCN(c2cc3cnn(-c4ccc(F)cc4)c3cc2C)C1)S(=O)(=O)c1cnn(C)c1 [Example 121],Ki,[1],120 nM
same,IC50,[2],40 nM
"Cc1cc2c(cnn2-c2ccn(C)n2)cc1C1(Cc2ccccc2)CCN(S(=O)(=O)c2cnn(C)n2)C1 (centres unmarked) [Example 259, 5-(3-benzyl-1-((2-methyl-2H-1,2,3-triazol-4-yl)sulfonyl)pyrrolidin-3-yl)-6-methyl-1-(1-methyl-1H-pyrazol-3-yl)-1H-indazole]",Ki,[1],540 nM
same,IC50,[2],180 nM
"CCn1cc(-n2ncc3cc(C4(Cc5ccccc5)CCN(S(=O)(=O)c5cnn(C)n5)C4)c(C)cc32)cn1 (centres unmarked) [Example 258, 5-(3-benzyl-1-((2-methyl-2H-1,2,3-triazol-4-yl)sulfonyl)pyrrolidin-3-yl)-1-(1-ethyl-1H-pyrazol-4-yl)-6-methyl-1H-indazole]",Ki,[1],76 nM
same,IC50,[2],31 nM
"CNS(=O)(=O)C1CCN(c2cc3cnn(-c4ccc(F)cc4)c3cc2C)C1 (centres unmarked) [Example 28, 1-(1-(4-fluorophenyl)-6-methyl-1H-indazol-5-yl)-N-methylpyrrolidine-3-sulfonamide]",Ki,[1],1060 nM
same,IC50,[2],114 nM
Cc1cc2c(cnn2-c2ccc(F)cc2)cc1C1(Cc2ccc(C(F)(F)F)cc2)CCN(S(C)(=O)=O)C1 (centres unmarked) [Example 177],Ki,[1],28 nM
same,IC50,[2],212 nM
Cc1cc2c(cnn2-c2ccc(F)cc2)cc1N1CCC(C)(NS(=O)(=O)c2cnn(C)c2)CC1 [Example 131],Ki,[1],98 nM
same,IC50,[2],4 nM
"Cc1cc2c(cnn2-c2ccc(=O)n(C)c2)cc1C1(Cc2ccccc2)CCN(S(=O)(=O)c2cc(F)ccc2F)C1 (centres unmarked) [Example 316, 5-(5-(3-benzyl-1-((2,5-difluorophenyl)sulfonyl)pyrrolidin-3-yl)-6-methyl-1H-indazol-1-yl)-1-methylpyridin-2(1H)-one]",Ki,[1],32 nM
same,IC50,[2],12 nM
"CC(=O)N1CCC(Cc2cccc(C(F)(F)F)c2)(c2cc3cnn(-c4ccc(F)cc4)c3cc2C)C1 (centres unmarked) [Example 192, 1-(3-(1-(4-fluorophenyl)-6-methyl-1H-indazol-5-yl)-3-(3-(trifluoromethyl)benzyl)pyrrolidin-1-yl)ethan-1-one]",Ki,[1],72 nM
same,IC50,[2],14 nM
Cc1cc2c(cnn2-c2ccc(F)cc2)cc1C1(Cc2ccccc2)CCN(C(=O)c2cscn2)C1 (centres unmarked) [Example 235],Ki,[1],34 nM
same,IC50,[2],12 nM
"Cc1cc2c(cnn2-c2ccc(F)cc2)cc1C1(Cc2ccccc2)CCN(C)C1 (centres unmarked) [Example 20, 5-(3-benzyl-1-methylpyrrolidin-3-yl)-1-(4-fluorophenyl)-6-methyl-1H-indazole]",Ki,[1],236 nM
same,IC50,[2],8 nM
"Cc1cc2c(cnn2-c2ccc(=O)n(C)c2)cc1C1(Cc2ccccc2)CCN(C(=O)C2CC2C)C1 (centres unmarked) [Example 331, 5-(5-(3-benzyl-1-(2-methylcyclopropane-1-carbonyl)pyrrolidin-3-yl)-6-methyl-1H-indazol-1-yl)-1-methylpyridin-2(1H)-one]",Ki,[1],100 nM
same,IC50,[2],15 nM
Cc1cc2c(cnn2-c2ccc(F)cc2)cc1C1(Cc2ccc(C(F)(F)F)nc2)CCN(S(=O)(=O)c2cnn(C)c2)C1 (centres unmarked) [Example 170],Ki,[1],104 nM
same,IC50,[2],123 nM
"COc1cccc(S(=O)(=O)N2CCC(Cc3ccccc3)(c3cc4cnn(-c5ccc(=O)n(C)c5)c4cc3C)C2)c1 (centres unmarked) [Example 310, 5-(5-(3-benzyl-1-((3-methoxyphenyl)sulfonyl)pyrrolidin-3-yl)-6-methyl-1H-indazol-1-yl)-1-methylpyridin-2(1H)-one]",Ki,[1],66 nM
same,IC50,[2],11 nM
"Cc1cc2c(cnn2-c2ccc(=O)n(C)c2)cc1C1(Cc2ccccc2)CCN(C(=O)c2ccnnc2)C1 (centres unmarked) [Example 327, 5-(5-(3-benzyl-1-(pyridazine-4-carbonyl)pyrrolidin-3-yl)-6-methyl-1H-indazol-1-yl)-1-methylpyridin-2(1H)-one]",Ki,[1],540 nM
same,IC50,[2],170 nM
Cc1cc2c(cnn2-c2ccc(F)cc2)cc1C1(Cc2cccc(C(F)(F)F)c2)CCN(S(=O)(=O)c2cnn(C)c2)C1 (centres unmarked) [Example 176],Ki,[1],33 nM
same,IC50,[2],60 nM
"Cc1cc2c(cnn2-c2ccc(F)cc2)cc1C1(CC#CC2CC2)CCN(S(=O)(=O)c2cnn(C)c2)C1 (centres unmarked) [Example 221, 5-(3-(3-cyclopropylprop-2-yn-1-yl)-1-((1-methyl-1H-pyrazol-4-yl)sulfonyl)pyrrolidin-3-yl)-1-(4-fluorophenyl)-6-methyl-1H-indazole]",Ki,[1],45 nM
same,IC50,[2],56 nM
Cc1cc2c(cnn2-c2ccc(F)cc2)cc1N1CCC(C)(NS(C)(=O)=O)CC1 [Example 130],Ki,[1],144 nM
same,IC50,[2],8 nM
"COc1nn(C)cc1-n1ncc2cc(C3(Cc4ccccc4)CCN(S(=O)(=O)c4cnn(C)n4)C3)c(C)cc21 (centres unmarked) [Example 251, 5-(3-benzyl-1-((2-methyl-2H-1,2,3-triazol-4-yl)sulfonyl)pyrrolidin-3-yl)-1-(3-methoxy-1-methyl-1H-pyrazol-4-yl)-6-methyl-1H-indazole]",Ki,[1],180 nM
same,IC50,[2],27 nM
"Cc1cc2c(cnn2-c2ccc(=O)n(C)c2)cc1C1(Cc2ccccc2)CCN(C(=O)C2(C(F)(F)F)CC2)C1 (centres unmarked) [Example 330, 5-(5-(3-benzyl-1-(1-(trifluoromethyl)cyclopropane-1-carbonyl)pyrrolidin-3-yl)-6-methyl-1H-indazol-1-yl)-1-methylpyridin-2(1H)-one]",Ki,[1],200 nM
same,IC50,[2],16 nM
CS(=O)(=O)N1CC=C(c2cc3cnn(-c4ccc(F)cc4)c3cc2Cl)CC1 [Example 142],Ki,[1],715 nM
same,IC50,[2],429 nM
CCCn1cc(S(=O)(=O)N2CC=C(c3cc4cnn(-c5ccc(F)cc5)c4cc3Cl)CC2)cn1 [Example 143],Ki,[1],32 nM
same,IC50,[2],384 nM
Cc1cc2c(cnn2-c2ccc(F)cc2)cc1C1(Cc2ccccc2)CCN(S(=O)(=O)C2CC2)C1 (centres unmarked) [Example 155],Ki,[1],16 nM
same,IC50,[2],13 nM
"Cc1cc2c(cnn2-c2ccc(F)cc2)cc1C1(Cc2ccccc2)CCN(S(=O)(=O)c2cnn(C)n2)C1 (centres unmarked) [Example 213, 5-(3-benzyl-1-((2-methyl-2H-1,2,3-triazol-4-yl)sulfonyl)pyrrolidin-3-yl)-1-(4-fluorophenyl)-6-methyl-1H-indazole]",Ki,[1],13 nM
same,IC50,[2],17 nM
"Cc1cc2c(cnn2-c2ccc(=O)n(C)c2)cc1C1(Cc2ccccc2)CCN(S(=O)(=O)c2cnn(C)n2)C1 (centres unmarked) [Example 266, 5-(5-(3-benzyl-1-((2-methyl-2H-1,2,3-triazol-4-yl)sulfonyl)pyrrolidin-3-yl)-6-methyl-1H-indazol-1-yl)-1-methylpyridin-2(1H)-one]",Ki,[1],40 nM
same,IC50,[2],4.7 nM
Cc1cc2c(cnn2-c2ccc(F)cc2)cc1C1(Cc2cccc(C(F)(F)F)c2)CCN(S(C)(=O)=O)C1 (centres unmarked) [Example 175],Ki,[1],20 nM
same,IC50,[2],24 nM
CCOC(=O)N1CCN(c2cc3cnn(-c4ccc(F)cc4)c3cc2C)CC12CC2 [Example 103],Ki,[1],1710 nM
same,IC50,[2],135 nM
"CCCn1cc(S(=O)(=O)N2CC[C@@](Cc3ccccc3)(c3cc4cnn(-c5ccc(F)cc5)c4cc3C)C2)cn1 [Example 17, (S)-5-(3-benzyl-1-((1-propyl-1H-pyrazol-4-yl)sulfonyl)pyrrolidin-3-yl)-1-(4-fluorophenyl)-6-methyl-1H-indazole]",Ki,[1],23 nM
same,IC50,[2],52 nM
"Cc1cc2c(cnn2-c2ccc(=O)n(C)c2)cc1C1(Cc2ccccc2)CCN(S(=O)(=O)c2cn(C)cn2)C1 (centres unmarked) [Example 290, 5-(5-(3-benzyl-1-((1-methyl-1H-imidazol-4-yl)sulfonyl)pyrrolidin-3-yl)-6-methyl-1H-indazol-1-yl)-1-methylpyridin-2(1H)-one]",Ki,[1],200 nM
same,IC50,[2],62 nM
"COCC1(c2cc3cnn(-c4ccc(F)cc4)c3cc2C)CCN(S(=O)(=O)c2cnn(C)c2)C1 (centres unmarked) [Example 340, 1-(4-fluorophenyl)-5-(3-(methoxymethyl)-1-((1-methyl-1H-pyrazol-4-yl)sulfonyl)pyrrolidin-3-yl)-6-methyl-1H-indazole]",Ki,[1],820 nM
same,IC50,[2],57 nM
"[2H]C([2H])([2H])n1ncc(S(=O)(=O)N2CCC(Cc3ccccc3)(c3cc4cnn(-c5ccc(=O)n(C)c5)c4cc3C)C2)n1 (centres unmarked) [Example 296, 5-(5-(3-benzyl-1-((2-(methyl-d3)-2H-1,2,3-triazol-4-yl)sulfonyl)pyrrolidin-3-yl)-6-methyl-1H-indazol-1-yl)-1-methylpyridin-2(1H)-one]",Ki,[1],44 nM
same,IC50,[2],6.9 nM
"Cc1cc2c(cnn2-c2ccc(=O)[nH]c2)cc1C1(Cc2ccccc2)CCN(S(=O)(=O)c2cnn(C)n2)C1 (centres unmarked) [Example 267, 5-(5-(3-benzyl-1-((2-methyl-2H-1,2,3-triazol-4-yl)sulfonyl)pyrrolidin-3-yl)-6-methyl-1H-indazol-1-yl)pyridin-2(1H)-one]",Ki,[1],93 nM
same,IC50,[2],5.6 nM
"Cc1cc2c(cnn2-c2cnn(C3CC3)c2)cc1C1(Cc2ccccc2)CCN(S(=O)(=O)c2cnn(C)n2)C1 (centres unmarked) [Example 252, 5-(3-benzyl-1-((2-methyl-2H-1,2,3-triazol-4-yl)sulfonyl)pyrrolidin-3-yl)-1-(1-cyclopropyl-1H-pyrazol-4-yl)-6-methyl-1H-indazole]",Ki,[1],94 nM
same,IC50,[2],29 nM
